Values quoted from earlier work in publication PMC9516332 (Frontiers in Oncology, 2022).
Like-named read-outs stand apart in the source and are kept apart here.

Columns and labels:
Settings in all cases: cited from earlier work
[1] = biological target: T1, panel of 255 wild-type kinases (Homo sapiens, UniProt O94806)
T1 sequence (O94806 1-890): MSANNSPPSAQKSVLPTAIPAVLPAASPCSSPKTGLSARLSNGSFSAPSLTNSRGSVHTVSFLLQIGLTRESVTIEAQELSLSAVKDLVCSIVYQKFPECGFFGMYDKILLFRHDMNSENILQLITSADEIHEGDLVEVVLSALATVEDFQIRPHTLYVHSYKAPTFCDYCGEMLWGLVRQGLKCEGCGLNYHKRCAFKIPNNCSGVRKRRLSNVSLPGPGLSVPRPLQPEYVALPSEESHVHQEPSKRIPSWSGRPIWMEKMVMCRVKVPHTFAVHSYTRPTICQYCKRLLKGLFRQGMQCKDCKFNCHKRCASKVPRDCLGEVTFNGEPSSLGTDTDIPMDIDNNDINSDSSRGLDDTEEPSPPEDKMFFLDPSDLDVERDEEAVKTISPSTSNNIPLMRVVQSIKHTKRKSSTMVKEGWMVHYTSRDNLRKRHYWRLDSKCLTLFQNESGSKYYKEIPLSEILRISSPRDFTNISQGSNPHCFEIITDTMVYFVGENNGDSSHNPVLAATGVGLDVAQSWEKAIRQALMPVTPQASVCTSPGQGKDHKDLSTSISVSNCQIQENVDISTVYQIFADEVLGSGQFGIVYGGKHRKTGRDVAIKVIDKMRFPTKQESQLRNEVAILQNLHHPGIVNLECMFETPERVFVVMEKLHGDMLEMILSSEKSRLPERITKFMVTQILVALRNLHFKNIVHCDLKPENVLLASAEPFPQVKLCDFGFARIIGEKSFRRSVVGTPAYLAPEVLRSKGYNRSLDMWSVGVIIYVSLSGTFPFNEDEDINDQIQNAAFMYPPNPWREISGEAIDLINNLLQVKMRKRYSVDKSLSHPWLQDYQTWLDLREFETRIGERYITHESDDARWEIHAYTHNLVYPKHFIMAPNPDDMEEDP

[2] = biological target: panel of 255 wild-type kinases (Homo sapiens, UniProt P41240)
[3] = biological target: panel of 255 wild-type kinases (Homo sapiens, UniProt Q16512)
[4] = biological target: T2, panel of 255 wild-type kinases (Homo sapiens, UniProt Q16566)
T2 sequence (Q16566 1-473): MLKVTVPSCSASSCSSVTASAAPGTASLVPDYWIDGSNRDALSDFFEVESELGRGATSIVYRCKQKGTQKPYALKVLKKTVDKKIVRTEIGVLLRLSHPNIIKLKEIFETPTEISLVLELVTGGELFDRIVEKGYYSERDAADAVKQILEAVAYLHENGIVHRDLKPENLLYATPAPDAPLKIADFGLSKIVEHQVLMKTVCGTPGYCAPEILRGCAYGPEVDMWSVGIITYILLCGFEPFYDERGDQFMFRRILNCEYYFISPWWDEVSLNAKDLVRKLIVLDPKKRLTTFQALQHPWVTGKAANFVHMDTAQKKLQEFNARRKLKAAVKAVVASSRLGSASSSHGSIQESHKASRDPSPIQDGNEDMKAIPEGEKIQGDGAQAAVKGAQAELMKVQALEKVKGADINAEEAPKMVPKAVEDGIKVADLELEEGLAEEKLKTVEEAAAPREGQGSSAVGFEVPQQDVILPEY

[5] = biological target: T3, panel of 255 wild-type kinases (Homo sapiens, UniProt Q92630)
T3 sequence (Q92630 1-601): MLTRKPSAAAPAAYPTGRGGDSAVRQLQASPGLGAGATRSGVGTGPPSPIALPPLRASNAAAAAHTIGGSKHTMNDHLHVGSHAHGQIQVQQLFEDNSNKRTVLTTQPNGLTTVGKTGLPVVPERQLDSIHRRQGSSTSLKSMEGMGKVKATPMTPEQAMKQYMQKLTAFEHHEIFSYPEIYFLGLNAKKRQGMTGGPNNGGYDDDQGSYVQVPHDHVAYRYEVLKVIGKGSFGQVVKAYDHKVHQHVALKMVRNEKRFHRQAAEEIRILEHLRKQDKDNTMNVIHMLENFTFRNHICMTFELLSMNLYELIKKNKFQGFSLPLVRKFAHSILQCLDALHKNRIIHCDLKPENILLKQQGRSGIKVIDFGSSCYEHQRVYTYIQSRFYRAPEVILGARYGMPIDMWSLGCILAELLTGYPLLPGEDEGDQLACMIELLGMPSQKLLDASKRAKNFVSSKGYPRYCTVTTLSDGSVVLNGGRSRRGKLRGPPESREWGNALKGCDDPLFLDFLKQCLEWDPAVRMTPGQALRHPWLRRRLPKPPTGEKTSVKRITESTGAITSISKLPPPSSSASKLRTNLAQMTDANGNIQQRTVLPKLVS

[6] = kinase PKD3, 1 µmol/L single concentration, ref DOI: 10.1158/1535-7163.MCT-18-0877
[7] = kinase CSK, 1 µmol/L single concentration, ref DOI: 10.1158/1535-7163.MCT-18-0877
[8] = kinase PKN1, 1 µmol/L single concentration, ref DOI: 10.1158/1535-7163.MCT-18-0877
[9] = CaMK4 kinase assay, 1 µmol/L single concentration, ref DOI: 10.1158/1535-7163.MCT-18-0877
[10] = kinase DYRK2, 1 µmol/L single concentration, ref DOI: 10.1158/1535-7163.MCT-18-0877
[11] = kinase CSK, 1 µmol/L single concentration, ref DOI: 10.1371/journal.pone.0092146
[12] = kinase PKN1, 1 µmol/L single concentration, ref DOI: 10.1371/journal.pone.0092146
[13] = kinase DYRK2, 1 µmol/L single concentration, ref DOI: 10.1371/journal.pone.0092146
[14] = kinase PKD3, 1 µmol/L single concentration, ref DOI: 10.1371/journal.pone.0092146
[15] = CaMK4 kinase assay, 1 µmol/L single concentration, ref DOI: 10.1371/journal.pone.0092146

Structure (SMILES) | %-inhibition at 1 µmol/L, PKD3 [1, 6] | %-inhibition at 1 µmol/L, CSK [2, 7] | %-inhibition at 1 µmol/L, PKN1 [3, 8] | %-inhibition CaMK4 [4, 9] | %-inhibition at 1 µmol/L, DYRK2 [5, 10] | %-inhibition at 1 µmol/L, CSK [2, 11] | %-inhibition at 1 µmol/L, PKN1 [3, 12] | %-inhibition at 1 µmol/L, DYRK2 [5, 13] | other results
O=C(c1ccc(F)c(F)c1Nc1ccc(I)cc1F)N1CC(O)([C@@H]2CCCCN2)C1 [cobimetinib] | 4.41% | 5.62% | 19% | 2% | -2.74% |  |  |  | 
CO[C@@H]1[C@H](N(C)C(=O)c2ccccc2)C[C@H]2O[C@]1(C)n1c3ccccc3c3c4c(c5c6ccccc6n2c5c31)C(=O)NC4 [midostaurin] |  | 58% |  | 3.79% |  |  |  |  | 
C=CC(=O)N1CCC[C@@H](n2nc(-c3ccc(Oc4ccccc4)cc3)c3c(N)ncnc32)C1 [ibrutinib] | 5.48% |  | 9% | 3% | -1.83% |  |  |  | 
C[C@@H](Oc1cc(-c2cnn(C3CCNCC3)c2)cnc1N)c1c(Cl)ccc(F)c1Cl [crizotinib] |  |  |  |  |  | 9% | 23% | 10% | 
Cc1cc(Nc2ncc(Cl)c(Nc3ccccc3S(=O)(=O)C(C)C)n2)c(OC(C)C)cc1C1CCNCC1 [ceritinib] | 46% | 3% | 25% | 30% | 6.41% |  |  |  | 
CC(C)(C)c1nc(-c2cccc(NS(=O)(=O)c3c(F)cccc3F)c2F)c(-c2ccnc(N)n2)s1 [dabrafenib] |  |  |  |  |  | 98% | -2.84% | 6% | %-inhibition at 1 µmol/L, PKD3 [1, 14]: 93%; %-inhibition CaMK4 [4, 15]: 78%
C=CC(=O)Nc1cc(Nc2nccc(-c3cn(C)c4ccccc34)n2)c(OC)cc1N(C)CCN(C)C [osimertinib] | 28% | 9% | 14% | 2.5% | 45% |  |  |  | 
CC#CC(=O)N1CCC[C@H]1c1nc(-c2ccc(C(=O)Nc3ccccn3)cc2)c2c(N)nccn12 [acalabrutinib] | -2% | 7% | 11% | -8.42% | -16% |  |  |  | 
COc1cc(N2CCC(N3CCN(C)CC3)CC2)ccc1Nc1ncc(Cl)c(Nc2ccccc2P(C)(C)=O)n1 [brigatinib] |  |  |  |  |  |  |  |  | %-inhibition at 1 µmol/L, PKD3 [1]: 85%; %-inhibition at 1 µmol/L, CSK [2]: 9%; %-inhibition at 1 µmol/L, PKN1 [3]: 77%; %-inhibition CaMK4 [4]: 13%; %-inhibition at 1 µmol/L, DYRK2 [5]: 29%
CCCS(=O)(=O)Nc1ccc(F)c(C(=O)c2c[nH]c3ncc(-c4ccc(Cl)cc4)cc23)c1F [vemurafenib] |  |  |  |  |  | 76% | -0.378% | 1% | %-inhibition at 1 µmol/L, PKD3 [1, 14]: -4.7%; %-inhibition CaMK4 [4, 15]: -2.38%
CCc1cc2c(cc1N1CCC(N3CCOCC3)CC1)C(C)(C)c1[nH]c3cc(C#N)ccc3c1C2=O [alectinib] | 2.17% | 6% | 13% | -4% | 6% |  |  |  | 
CC(=O)Nc1cccc(-n2c(=O)n(C3CC3)c(=O)c3c(Nc4ccc(I)cc4F)n(C)c(=O)c(C)c32)c1 [trametinib] |  |  |  |  |  | -2.83% | 3.71% | -0.0865% | %-inhibition at 1 µmol/L, PKD3 [1, 14]: 2.48%; %-inhibition CaMK4 [4, 15]: -5.45%
